Measured values reported in patent publication US10030027B2, “Soluble guanylate cyclase stimulators” (MERCK SHARP & DOHME CORP., priority 2015, dated 2018).

Key:
[1] = tested on: hypoxia-induced pulmonary hypertension rat; assay: Acute efficacy in hypoxia-induced pulmonary hypertension in rat following intratracheal administration; assay type: in vivo
From the text: Acute Efficacy in Hypoxia-Induced Pulmonary Hypertension in Rat Following Intratracheal Administration Charles River Sprague-Dawley (CD) male rats weighing approximately 350 g were implanted with HD-S21 dual pressure telemetry transmitters (Data Sciences International (DSI)) into the pulmonary artery and femoral artery. This transmitter enables simultaneous measurement of both pulmonary and systemic hemodynamic parameters in the same animal. After a 7-10 day post-operative recovery period, animals were subjected to a normobaric hypoxic (10% oxygen) environment using a Higher Peak Mountain Air Generator (MAG-10) connected to a modified rodent cage via a fitted inlet port. Oxygen (at 10%), temperature, humidity, and CO2 were controlled within normal range and animals were maintained on a 12 hour light-dark cycle with ad libitum access to food and water. After two weeks exposure to 10% O2 hypoxic environment, systolic pulmonary arterial pressure readings increased from 25 mmHg to greater than 50 mmHg. Using a 48 hour baseline average, animals with readings between 50-110 mmHg (standard deviation of less than 10 mmHg) and minimal changes in systolic systemic blood pressure were enrolled for study. Animals were utilized for up to 2 studies per week for 4 weeks with a minimum of 2 days washout between doses of test agent. Compound or vehicle was administered intra-tracheally under light isoflurane anesthesia (5% in oxygen; flow rate 2.0 L/min for 3 minutes). Once anesthetized, rats were placed on an angled intubation stand in supine position and the trachea visualized using a small laryngoscope. Animals then received either 0.5 mL/kg of vehicle or 0.5 mL/kg vehicle containing compound intra-tracheally delivered via microsprayer by use of a Penn-Century Microsprayer® needle 3″ (Model IA-1B-GP) attached to a 1 mL high pressure syringe (Penn Century-Model B-SYR-PL1000) (Penn-Century, Philadelphia, Pa.). The Microsprayer® tip was inserted into the trachea up to the point at which the bend in the needle is close to the tip of the snout, which positions the tip of the Microsprayer® in front of the carina (bifurcation of trachea at the bronchi). After dose delivery the animal is placed on its back in the home cage for recovery. Hemodynamic measurements were continuously recorded and readings consolidated to hourly moving averages. Each animal received a vehicle on Day 1 followed by vehicle or test agent on Day 2. Change from vehicle baseline was calculated by subtracting the hourly Day 1 vehicle response from the hourly Day 2 response and treatment group data was expressed as mean±SEM. Decreases of systolic blood pressure (SBP) and systolic pulmonary arterial pressure (PAP) were measured at a particular IT dose (mpk milligrams per kilogram) for the following Example compounds.

sGC α1/β1 heterodimer = sGC α1/β1 heterodimer (Homo sapiens (Human), UniProt Q02108+Q02153); assay: Cell-based sGC functional assay (cyclic GMP assay for sGC activator: CASA assay); settings: CHO-K1/sGC cells; for Emax: CHO-K1, activity expressed as percentage of compound A (standard), read-out: % Activation; for EC50: inflection point, 4P fit, read-out: IP
In short: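 CHO-K1 cells stably expressing sGC α1/β1 were pre-incubated with or without 1 μM DETA-NO (30 min, 25 °C), then exposed to compounds for 1 hr at 37 °C with 0.5 mM IBMX. Intracellular cGMP was read by HTRF and expressed as a percentage of a reference heme-dependent activator's maximum.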

[2] = biological target: human recombinant sGC enzyme (Homo sapiens (Human), UniProt Q02108+Q02153); assay: Size Exclusion Chromatography (SEC) competition binding assay using [3H] Ex-77B as the radioligand; settings: [3H] Ex-77B radioligand, 24 hours at 37° C.
In short: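 Recombinant human sGC binding measured by competition against tritiated Ex-77B radioligand, with non-specific binding defined by 1 μM unlabeled Ex-77B.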

## C[C@@]1(c2ccc(CCC(=O)O)cc2)C(=O)Nc2nc(-c3nn(CC4CC(F)(F)C4)c4cc(Cl)ccc34)nc(N)c21 [Example 163B, (S)-3-{4-[4-amino-2-{6-chloro-1-[(3,3-difluorocyclo-butyl)methyl]-1H-indazol-3-yl}-5-methyl-6-oxo-6,7-dihydro-5H-pyrrolo[2,3-d]pyrimidin-5-yl]phenyl}propanoic acid]
[1]; Dose IT 0.03 mpk
  Category: decrease in SBP (at minimum decrease in PAP of ≥15 mmHg): C (decrease in SBP>10 mmHg)
sGC α1/β1 heterodimer
  Emax: 90.8%
  EC50: 408 nM
[2]
  Ki: 1.85 nM

## CC(C)(Cc1csc([C@]2(C)C(=O)Nc3nc(-c4nn(Cc5ncccc5F)c5cc(Cl)ccc45)nc(N)c32)n1)C(=O)O [Example 185A, (S)-3-{2-[4-amino-2-{6-chloro-1-[(3-fluoropyridin-2-yl)methyl]-1H-indazol-3-yl}-5-methyl-6-oxo-6,7-dihydro-5H-pyrrolo[2,3-d]pyrimidin-5-yl]-1,3-thiazol-4-yl}-2,2-dimethyl-propanoic acid]
[1]; Dose IT 0.01 mpk
  Category: decrease in SBP (at minimum decrease in PAP of ≥15 mmHg): A (decrease in SBP 0-5 mmHg)
sGC α1/β1 heterodimer
  Emax: 110%
  EC50: 426 nM
[2]
  Ki: 0.165 nM

## CC(C)(Cc1coc(C2(C)C(=O)Nc3nc(-c4nn(Cc5ccccc5F)c5cc(F)ccc45)nc(N)c32)n1)C(=O)O (centres unmarked) [Example 63A, 3-(2-{4-amino-2-[6-fluoro-1-(2-fluorobenzyl)-1H-indazol-3-yl]-5-methyl-6-oxo-6,7-dihydro-5H-pyrrolo[2,3-d]pyrimidin-5-yl}oxazol-4-yl)-2,2-dimethylpropanoic acid]
[1]; Dose IT 0.01 mpk
  Category: decrease in SBP (at minimum decrease in PAP of ≥15 mmHg): A (decrease in SBP 0-5 mmHg)
sGC α1/β1 heterodimer
  Emax: 72%
  EC50: 104 nM

## CC(C)(Cc1cccc(C2(C)C(=O)Nc3nc(-c4nn(CCC(F)(F)C(F)(F)F)c5ncccc45)nc(N)c32)c1)C(=O)O (centres unmarked) [Example 11B, 3-(3-{4-Amino-5-methyl-6-oxo-2-[1-(3,3,4,4,4-pentafluorobutyl)-1H-pyrazolo[3,4-b]pyridin-3-yl]-6,7-dihydro-5H-pyrrolo[2,3-d]pyrimidin-5-yl}phenyl)-2,2-dimethylpropanoic acid]
[1]; Dose IT 0.03 mpk
  Category: decrease in SBP (at minimum decrease in PAP of ≥15 mmHg): B (decrease in SBP 5-10 mmHg)
sGC α1/β1 heterodimer
  Emax: 99%
  EC50: 537 nM
[2]
  Ki: 0.304 nM

## CC(C)(Cc1csc([C@]2(C)C(=O)Nc3nc(-c4nn(Cc5ccccc5F)c5cc(Cl)ccc45)nc(N)c32)n1)C(=O)O [Example 95B, (S)-3-(2-{4-amino-2-[6-chloro-1-(2-fluorobenzyl)-1H-indazol-3-yl]-5-methyl-6-oxo-6,7-dihydro-5H-pyrrolo[2,3-d]pyrimidin-5-yl}-1,3-thiazol-4-yl)-2,2-dimethylpropanoic acid]
[1]; Dose IT 0.03 mpk
  Category: decrease in SBP (at minimum decrease in PAP of ≥15 mmHg): A (decrease in SBP 0-5 mmHg)
sGC α1/β1 heterodimer
  Emax: 118%
  EC50: 157 nM
[2]
  Ki: 0.06 nM

## CC1(c2nc(CCC(F)(F)C(=O)O)co2)C(=O)Nc2nc(-c3nn(Cc4ccccc4F)c4cc(Cl)ccc34)nc(N)c21 (centres unmarked) [Example 127A, 4-(2-{4-amino-2-[6-chloro-1-(2-fluorobenzyl)-1H-indazol-3-yl]-5-methyl-6-oxo-6,7-dihydro-5H-pyrrolo[2,3-d]pyrimidin-5-yl}-1,3-oxazol-4-yl)-2,2-difluorobutanoic acid]
[1]; Dose IT 0.03 mpk
  Category: decrease in SBP (at minimum decrease in PAP of ≥15 mmHg): A (decrease in SBP 0-5 mmHg)
sGC α1/β1 heterodimer
  Emax: 117%
  EC50: 52 nM
[2]
  Ki: 0.057 nM

## CC1(c2ccc(CCC(=O)O)cn2)C(=O)Nc2nc(-c3nn(CCC(F)(F)C(F)(F)F)c4cc(Cl)ccc34)nc(N)c21 (centres unmarked) [Example 119B, 3-(6-{4-Amino-2-[6-chloro-1-(3,3,4,4,4-pentafluorobutyl)-1H-indazol-3-yl]-5-methyl-6-oxo-6,7-dihydro-5H-pyrrolo[2,3-d]pyrimidin-5-yl}pyridin-3-yl)propanoic acid]
[1]; Dose IT 0.03 mpk
  Category: decrease in SBP (at minimum decrease in PAP of ≥15 mmHg): A (decrease in SBP 0-5 mmHg)
sGC α1/β1 heterodimer
  Emax: 103%
  EC50: 839 nM
[2]
  Ki: 0.292 nM

## CC(C)(Cc1coc(C2(C)C(=O)Nc3nc(-c4nn(CC5CCCCC5)c5cc(F)ccc45)nc(N)c32)n1)C(=O)O (centres unmarked) [Example 202A, 3-(2-{4-amino-2-[1-(cyclohexyl-methyl)-6-fluoro-1H-indazol-3-yl]-5-methyl-6-oxo-6,7-dihydro-5H-pyrrolo[2,3-d]pyrimidin-5-yl}-1,3-oxazol-4-yl)-2,2-dimethyl-propanoic acid]
[1]; Dose IT 0.01 mpk
  Category: decrease in SBP (at minimum decrease in PAP of ≥15 mmHg): A (decrease in SBP 0-5 mmHg)
sGC α1/β1 heterodimer
  Emax: 122%
  EC50: 212 nM
[2]
  Ki: 0.186 nM

## CC(C)(Cc1csc([C@]2(C)C(=O)Nc3nc(-c4nn(Cc5cccc(F)c5)c5ccccc45)nc(N)c32)n1)C(=O)O [Example 222A, (S)-3-(2-{4-amino-2-[1-(3-fluoro-benzyl)-1H-indazol-3-yl]-5-methyl-6-oxo-6,7-dihydro-5H-pyrrolo[2,3-d]pyrimidin-5-yl}-1,3-thiazol-4-yl)-2,2-dimethyl-propanoic acid]
[1]; Dose IT 0.01 mpk
  Category: decrease in SBP (at minimum decrease in PAP of ≥15 mmHg): B (decrease in SBP 5-10 mmHg)
sGC α1/β1 heterodimer
  Emax: 105%
  EC50: 71 nM
[2]
  Ki: 0.112 nM

## C[C@@]1(c2nc(C3CC3C(=O)O)cs2)C(=O)Nc2nc(-c3nn(CCC(F)(F)C(F)(F)F)c4ncccc34)nc(N)c21 (stereo partly drawn) [Example 80BA, (5S)-2-(2-{-4-amino-5-methyl-6-oxo-2-[1-(3,3,4,4,4-pentafluorobutyl)-1H-pyrazolo[3,4-b]pyridin-3-yl]-6,7-dihydro-5H-pyrrolo[2,3-d]pyrimidin-5-yl}-1,3-thiazol-4-yl)cyclopropane-carboxylic acid]
[1]; Dose IT 0.1 mpk
  Category: decrease in SBP (at minimum decrease in PAP of ≥15 mmHg): B (decrease in SBP 5-10 mmHg)

## CC(C)(Cc1coc(C2(C)C(=O)Nc3nc(-c4nn(Cc5ccccc5F)c5cc(Cl)ccc45)nc(N)c32)n1)c1nn[nH]n1 (centres unmarked) [Example 239A, 4-amino-2-[6-chloro-1-(2-fluorobenzyl)-1H-indazol-3-yl]-5-methyl-5-{4-[2-methyl-2-(2H-tetrazol-5-yl)propyl]-1,3-oxazol-2-yl}-5,7-dihydro-6H-pyrrolo[2,3-d] pyrimidin-6-one]
[1]; Dose IT 0.01 mpk
  Category: decrease in SBP (at minimum decrease in PAP of ≥15 mmHg): A (decrease in SBP 0-5 mmHg)
sGC α1/β1 heterodimer
  Emax: 62.3%
  EC50: 350 nM
[2]
  Ki: 0.068 nM

## C[C@@]1(c2ccc(CCC(=O)O)cc2)C(=O)Nc2nc(-c3nn(Cc4ccccc4F)c4cc(Cl)ccc34)nc(N)c21 [Example 47B, (S)-3-(4-{4-amino-2-[6-chloro-1-(2-fluorobenzyl)-1H-indazol-3-yl]-5-methyl-6-oxo-6,7-dihydro-5H-pyrrolo[2,3-d]pyrimidin-5-yl}phenyl)propanoic acid]
[1]; Dose IT 0.03 mpk
  Category: decrease in SBP (at minimum decrease in PAP of ≥15 mmHg): A (decrease in SBP 0-5 mmHg)
sGC α1/β1 heterodimer
  Emax: 88%
  EC50: 218 nM
[2]
  Ki: 0.114 nM

## C[C@@]1(c2nc(CC3(C(=O)O)CC3)cs2)C(=O)Nc2nc(-c3nn(CCC(F)(F)C(F)(F)F)c4ncccc34)nc(N)c21 [Example 81B, (S)-1-[(2-{4-amino-5-methyl-6-oxo-2-[1-(3,3,4,4,4-pentafluorobutyl)-1H-pyrazolo[3,4-b]pyridin-3-yl]-6,7-dihydro-5H-pyrrolo[2,3-d]pyrimidin-5-yl}-1,3-thiazol-4-yl)methyl]cyclopropane carboxylic acid]
[1]; Dose IT 0.03 mpk
  Category: decrease in SBP (at minimum decrease in PAP of ≥15 mmHg): B (decrease in SBP 5-10 mmHg)
sGC α1/β1 heterodimer
  Emax: 110%
  EC50: 504 nM

## CC1(c2nc(CC(=O)O)co2)C(=O)Nc2nc(-c3nn(Cc4ccccc4F)c4cc(Cl)ccc34)nc(N)c21 (centres unmarked) [Example 51B, 2-(2-{4-amino-2-(6-chloro-1-(2-fluorobenzyl)-1H-indazol-3-yl)-5-methyl-6-oxo-6,7-dihydro-5H-pyrrolo[2,3-d]pyrimidin-5-yl}oxazol-4-yl)acetic acid]
[1]; Dose IT 0.01 mpk
  Category: decrease in SBP (at minimum decrease in PAP of ≥15 mmHg): A (decrease in SBP 0-5 mmHg)
sGC α1/β1 heterodimer
  Emax: 116%
  EC50: 485 nM
